# Laboratory results as given in patent US10894058B2, “Method for producing solid dispersion containing hardly soluble polyphenol” (KAO CORPORATION, priority 2014, dated 2021).
# Columns and labels:
# [1] = Evaluation of solubility: concentration of hardly soluble polyphenol dissolved in ion-exchanged water, quantified by HPLC; type: physicochemical; details: sample added to ion-exchanged water at 1 g/L, shaken at 25° C. for 5 minutes, filtered 0.8 μm
# Experimental: Hardly soluble polyphenols were each quantified by a gradient method using a high-performance liquid chromatograph manufactured by Hitachi, Ltd. with a column Cadenza CD-C18 (4.6 mmφ×150 mm, 3 μm) manufactured by Imtakt Corporation at a column temperature of 40° C.
# A mobile phase, solution A, was 0.05 mol/L acetic acid aqueous solution, and the other mobile phase, solution B, was acetonitrile. Flow rate was 1.0 mL/min. Gradient conditions are shown below.
# In addition, ellagic acid was quantified using the same device except that only gradient conditions were set as shown below.
# The sample injection volume was 10 μL, and quantification was carried out on the basis of an absorbance at a wavelength of 254 nm.
# A sample was added to ion-exchanged water at 1 g/L, and the resultant was shaken at 25° C. for 5 minutes. After that, the resultant was filtered with a cellulose acetate filter having a pore size of 0.8 μm, and the concentration of a hardly soluble polyphenol dissolved was measured by the above-mentioned quantification method.
# [2] = X-ray diffraction analysis: crystallinity degree of ellagic acid; type: physicochemical; details: powder X-ray diffraction, FIG. 1 to FIG. 3
# Experimental: The crystallinity degree of the hardly soluble polyphenol may be calculated by the following method. First, diffraction intensity values determined by an X-ray diffraction method are subjected to peak separation into a crystalline diffraction line and an amorphous halo through profile fitting without considering effects of incoherent scattering, a lattice defect, and the like. Next, the crystallinity degree of a hardly soluble polyphenol is calculated by the following calculation equation (2) from the resultant integrated intensities of the respective peaks: Crystallinity degree (%) of hardly soluble polyphenol=[ΣIα/(ΣIα+ΣIam)]×100 (2) where ΣIα represents a sum of integrated intensities of respective peaks in a crystalline diffraction line, and ΣIam represents a sum of integrated intensities of respective peaks in a diffraction line of an amorphous part.
# An X-ray diffraction intensity was measured using “Mini Flex II” manufactured by Rigaku Corporation under the conditions of: an X-ray source of Cu/Kα-radiation; a tube voltage of 30 kV; a tube current of 15 mA; a measurement range of from 5° to 40° in terms of a diffraction angle; and an X-ray scan speed of 10°/min. A sample for measurement was prepared by compressing a pellet having an area of 400 mm^2 and a thickness of 0.5 mm.
# [3] = cited from earlier work
structure (smiles),measurement,setting,value
"O=c1oc2c(O)c(O)cc3c(=O)oc4c(O)c(O)cc1c4c23 [Comparative Example 1, Ellagic acid]",Amount of ellagic acid dissolved,[1],0.0053 g/L
same,crystallinity degree of ellagic acid,[2],87%
same,solubility in water (25° C.),[3],5 µg/mL
"O.O.O=c1c(O)c(-c2ccc(O)c(O)c2)oc2cc(O)cc(O)c12 [Comparative Example 5, Quercetin dihydrate]",Amount of quercetin dissolved,[1],0.005 g/L
"COc1cc(/C=C/C(=O)CC(=O)/C=C/c2ccc(O)c(OC)c2)ccc1O [Comparative Example 7, Curcumin]",Amount of curcumin dissolved,[1],0.001 g/L
"COc1ccc(-c2cc(=O)c3c(OC)c(OC)c(OC)c(OC)c3o2)cc1OC [Comparative Example 8, Nobiletin]",Amount of nobiletin dissolved,[1],0.007 g/L
"c1cc2c(cc1[C@H]1OC[C@H]3[C@@H]1CO[C@@H]3c1ccc3c(c1)OCO3)OCO2 [Comparative Example 9, Sesamin]",Amount of sesamin dissolved,[1],0.0001 g/L
"Oc1ccc(C=Cc2cc(O)cc(O)c2)cc1 [Comparative Example 11, Resveratrol]",Amount of resveratrol dissolved,[1],0.03 g/L
"O=C1C[C@@H](c2ccc(O)cc2)Oc2cc(O)cc(O)c21 [Comparative Example 12, Naringenin]",Amount of naringenin dissolved,[1],0.008 g/L
